SMILES strings stand for the structures. Several values for one entry are separate records, joined by “and”; a condition that tells them apart may be missing. Equal values may be shown once.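 A five-concentration, 48-hour dose response in 96-well plates underlies each endpoint, interpolated linearly between surrounding concentrations. GI50 is the concentration that inhibits growth by half. Definition used: TGI = concentration required for complete inhibition of growth.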

Some test systems named below: TK-10 renal; IGROV1 ovarian; SK-MEL-2 melanoma; SF-295 CNS; MCF7 breast; CCRF-CEM leukemia; A498 renal; UACC-257 melanoma; SNB-75 CNS; COLO 205 colon.
What all share (test): DTP human tumour cell line panel, 48 h

For the compound `CN(C)CCS(=O)(=O)Nc1cc(-c2ccc3ncc(C#N)c(Nc4ccc(F)c(Cl)c4)c3c2)cnc1Cl`, the concentration for 50% growth inhibition (GI50) with TK-10 renal is 0.155 µM; in the test on IGROV1 ovarian, 0.0777 µM; in the test on SK-MEL-2 melanoma, 0.173 µM; with SF-295 CNS it was 0.366 µM; in the test on MCF7 breast it was 0.106 µM; with CCRF-CEM leukemia, 0.11 µM. In addition, the GI50 in the test with A498 renal was 0.144 µM; in the test on UACC-257 melanoma, 0.273 µM; with SNB-75 CNS it was < 0.0152 µM; in the test on COLO 205 colon, 0.188 µM. Also, the concentration for total growth inhibition (TGI) in the test with TK-10 renal was 0.762 µM; with IGROV1 ovarian it was 0.287 µM; in the test with SK-MEL-2 melanoma, 0.532 µM; in the test with SF-295 CNS, 2.4 µM; in the test with MCF7 breast, 1.39 µM; in the test with CCRF-CEM leukemia, 8.46 µM. For the same compound, the TGI in the test on A498 renal is 0.344 µM; with UACC-257 melanoma, 3.51 µM; in the test with SNB-75 CNS, 0.562 µM; with COLO 205 colon, 0.439 µM.
`O=c1oc2ccc(Br)cc2c(=O)n1-c1ccc(Cl)cc1F`: the GI50 was 4.19 µM in the test on TK-10 renal; 0.61 µM with IGROV1 ovarian; 0.69 µM in the test on SK-MEL-2 melanoma; 1.78 µM with SF-295 CNS; 1.66 µM in the test with MCF7 breast; 2.38 µM in the test on CCRF-CEM leukemia. Besides, the GI50 with A498 renal is 0.194 µM; in the test on UACC-257 melanoma it was 0.915 µM; with SNB-75 CNS, 0.572 µM; with COLO 205 colon, 2.99 µM. Besides, the total growth inhibition concentration (TGI) in the test with TK-10 renal was 18.9 µM; in the test with IGROV1 ovarian, 17.2 µM; with SK-MEL-2 melanoma, 4.5 µM; in the test on SF-295 CNS it was 3.54 µM; in the test on MCF7 breast it was 10.1 µM; in the test with CCRF-CEM leukemia, 11.7 µM. Also, the TGI in the test with A498 renal was 0.772 µM; with UACC-257 melanoma it was 5.59 µM; in the test on SNB-75 CNS, 2.8 µM; in the test with COLO 205 colon, 9.93 µM.
For `COC(=O)CNc1nc(N(C)O)nc(N(C)O)n1`, the GI50 in the test on TK-10 renal was 1.61 µM; in the test on IGROV1 ovarian, 7.38 µM; with SK-MEL-2 melanoma it was 3.45 µM; in the test with SF-295 CNS it was 2.92 µM; in the test with MCF7 breast, 3.07 µM; in the test with CCRF-CEM leukemia, 0.697 µM. Further, the GI50 with A498 renal was 20.3 µM; in the test with UACC-257 melanoma, 11.6 µM; in the test with SNB-75 CNS, 4.2 µM; in the test with COLO 205 colon, 3.99 µM. Further, the concentration for total growth inhibition (TGI) in the test with TK-10 renal was > 100 µM; in the test on IGROV1 ovarian it was 39.4 µM; in the test with SK-MEL-2 melanoma it was 25.7 µM; with SF-295 CNS it was > 100 µM; in the test with MCF7 breast, > 100 µM; in the test with CCRF-CEM leukemia it was > 100 µM. Besides, the TGI with A498 renal was > 100 µM; in the test with UACC-257 melanoma, 80.3 µM; with SNB-75 CNS it was > 100 µM; in the test on COLO 205 colon, > 100 µM.
`COc1cc(C2CC(=O)Nc3c2c(C)nn3-c2nc3ccccc3[nH]2)cc(OC)c1O` (stereo unspecified): the GI50 was 2.84 µM in the test on TK-10 renal; 2.82 µM in the test with IGROV1 ovarian; 2.23 µM in the test on SK-MEL-2 melanoma; 1.33 µM in the test with SF-295 CNS; 3.13 µM in the test with MCF7 breast; 1.34 µM with CCRF-CEM leukemia. For the same compound, the GI50 was 1.86 µM with A498 renal, 2.98 µM in the test with UACC-257 melanoma, 1.85 µM in the test on SNB-75 CNS and 17.2 µM in the test with COLO 205 colon. The concentration for total growth inhibition (TGI) in the test on TK-10 renal is 7.67 µM; in the test with IGROV1 ovarian, 7.63 µM; with SK-MEL-2 melanoma, 4.52 µM; in the test on SF-295 CNS, 3.71 µM; with MCF7 breast, > 100 µM; in the test with CCRF-CEM leukemia, > 100 µM. The TGI was 6.1 µM with A498 renal, > 24.5 µM in the test on UACC-257 melanoma, 5.13 µM in the test on SNB-75 CNS and 46 µM in the test with COLO 205 colon.
For the compound `COC(=O)[C@@H](C)C[C@H](Cc1ccccc1)NC(=O)c1csc([C@@H](C[C@H](C(C)C)N(C)C(=O)[C@@H](NC(=O)[C@H]2CCCN2C)C2CC2)OC(C)=O)n1`, the TGI with TK-10 renal is > 25 µM; with IGROV1 ovarian, > 25 µM; in the test on SF-295 CNS it was > 25 µM; in the test with MCF7 breast it was > 25 µM; in the test with CCRF-CEM leukemia it was > 25 µM; in the test on A498 renal, 0.00817 µM and < 0.0025 µM. Moreover, the TGI in the test on SNB-75 CNS is > 25 µM; in the test with COLO 205 colon, 0.0117 µM and < 0.0025 µM. The GI50 is 0.000823 µM and 0.0025 µM with IGROV1 ovarian; 0.000505 µM in the test on SK-MEL-2 melanoma; 0.00302 µM and 0.0025 µM in the test on SF-295 CNS; 0.000586 µM and 0.0025 µM in the test on CCRF-CEM leukemia; 0.00147 µM and < 0.0025 µM in the test with A498 renal; 0.22 µM with UACC-257 melanoma. The GI50 in the test with SNB-75 CNS is 0.0025 µM; with COLO 205 colon it was 0.000874 µM and < 0.0025 µM.
For `CCC1(c2ccc(N)cc2)CCC(=O)NC1=O` (stereo unspecified), the TGI in the test with TK-10 renal is 4890 µM; in the test on IGROV1 ovarian it was > 4850 µM; in the test with SK-MEL-2 melanoma it was > 5000 µM; in the test on SF-295 CNS, > 3870 µM; in the test on MCF7 breast it was > 5000 µM; with CCRF-CEM leukemia, > 1990 µM. For the same compound, the TGI in the test on A498 renal is > 5000 µM; in the test on UACC-257 melanoma, > 4880 µM; in the test with SNB-75 CNS, 4490 µM; in the test on COLO 205 colon, 3070 µM.
`[Cu+2].[NH-]C(CC(=O)O)C(=O)O.[NH-]C(CC(=O)O)C(=O)O` (stereo unspecified): the GI50 with TK-10 renal was > 100 µM; with IGROV1 ovarian, > 100 µM; in the test on SK-MEL-2 melanoma, > 100 µM; in the test with SF-295 CNS, > 100 µM; with MCF7 breast, 52.3 µM; in the test on CCRF-CEM leukemia, 0.929 µM. Besides, the GI50 in the test on A498 renal was 36.7 µM; in the test with UACC-257 melanoma, > 100 µM; with SNB-75 CNS, > 100 µM; in the test with COLO 205 colon, > 100 µM. Also, the total growth inhibition concentration (TGI) in the test on TK-10 renal, with IGROV1 ovarian, in the test with SK-MEL-2 melanoma, with SF-295 CNS, with MCF7 breast and in the test on CCRF-CEM leukemia was > 100 µM in each case. Also, the total growth inhibition concentration (TGI) in the test on A498 renal, in the test on UACC-257 melanoma, in the test on SNB-75 CNS and in the test on COLO 205 colon was > 100 µM each time.
For the compound `Cc1ccc(OCCOCCOCCOCCOCCOc2ccc(C)n(O)c2=S)c(=S)n1O`, the GI50 with TK-10 renal was 0.0826 µM; with IGROV1 ovarian it was 0.0372 µM; in the test with SK-MEL-2 melanoma, 4.81 µM; in the test with SF-295 CNS it was 0.0378 µM; in the test on MCF7 breast it was 0.0254 µM; in the test with CCRF-CEM leukemia, 0.0504 µM. For the same compound, the GI50 in the test with A498 renal is 0.149 µM; with UACC-257 melanoma it was 0.0425 µM; in the test with SNB-75 CNS it was 0.456 µM; with COLO 205 colon, 0.0428 µM. The TGI in the test on TK-10 renal was > 100 µM; in the test with IGROV1 ovarian, > 72.5 µM; with SK-MEL-2 melanoma it was 40.5 µM; in the test on SF-295 CNS, > 43.6 µM; in the test with MCF7 breast, > 69.7 µM; in the test with CCRF-CEM leukemia, > 100 µM. The TGI with A498 renal was 3.88 µM; with UACC-257 melanoma it was > 66.4 µM; in the test on SNB-75 CNS it was 18.1 µM; in the test on COLO 205 colon, > 100 µM.

The record behind these values is PubChem BioAssay (NCI).
